Measured values reported in patent publication US11066369B2, “N-(pyridin-2-yl)pyridine-sulfonamide derivatives and their use in the treatment of disease” (Novartis AG, priority 2016, dated 2021).
Where a name gives a salt, the structure may show the parent alone. Read-outs that look alike come from different tables or passages of the source.

Molecular target: T1, horseradish peroxidase (HRP) tagged delF508-CFTR (Homo sapiens, UniProt P13569, DEL508-508)
T1 construct: expressed in transfected cells
Test: Measurement of delF508-CFTR-HRP surface expression in CFBE41o- cells;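 for DelF508-CFTR-HRP Amax %: percent efficacy relative to reference corrector lumacaftor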
Type: cell-based
Settings: for Emax: read-out: DelF508-CFTR-HRP Amax %
Summary of the method: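 CFBE41o- bronchial epithelial cells stably expressing delF508-CFTR with HRP in the fourth extracellular loop; expression induced 48h with 500 ng/mL doxycycline, then compounds added (top 10 μM, 10-point 3-fold series, ≤0.5% DMSO) for 24h at 37° C. Surface HRP measured by luminescence with cell-impermeant substrate; EC50 from logistic fit of triplicates, plate-normalized to lowest concentration; efficacy also relative to a reference corrector.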

[1] = delF508-CFTR-HRP surface expression, CFBE41o- cells
[2] = delF508-CFTR-HRP surface expression, CFBE41o- cells, read-out: DelF508-CFTR-HRP EC50
[3] = CFBE41o- cells, mean of at least two replicates, read-out: DelF508-CFTR-HRP EC50
[4] = CFBE41o- cells, surface expression Amax

T1 sequence (P13569 with tags, fused parts or gaps DEL508-508): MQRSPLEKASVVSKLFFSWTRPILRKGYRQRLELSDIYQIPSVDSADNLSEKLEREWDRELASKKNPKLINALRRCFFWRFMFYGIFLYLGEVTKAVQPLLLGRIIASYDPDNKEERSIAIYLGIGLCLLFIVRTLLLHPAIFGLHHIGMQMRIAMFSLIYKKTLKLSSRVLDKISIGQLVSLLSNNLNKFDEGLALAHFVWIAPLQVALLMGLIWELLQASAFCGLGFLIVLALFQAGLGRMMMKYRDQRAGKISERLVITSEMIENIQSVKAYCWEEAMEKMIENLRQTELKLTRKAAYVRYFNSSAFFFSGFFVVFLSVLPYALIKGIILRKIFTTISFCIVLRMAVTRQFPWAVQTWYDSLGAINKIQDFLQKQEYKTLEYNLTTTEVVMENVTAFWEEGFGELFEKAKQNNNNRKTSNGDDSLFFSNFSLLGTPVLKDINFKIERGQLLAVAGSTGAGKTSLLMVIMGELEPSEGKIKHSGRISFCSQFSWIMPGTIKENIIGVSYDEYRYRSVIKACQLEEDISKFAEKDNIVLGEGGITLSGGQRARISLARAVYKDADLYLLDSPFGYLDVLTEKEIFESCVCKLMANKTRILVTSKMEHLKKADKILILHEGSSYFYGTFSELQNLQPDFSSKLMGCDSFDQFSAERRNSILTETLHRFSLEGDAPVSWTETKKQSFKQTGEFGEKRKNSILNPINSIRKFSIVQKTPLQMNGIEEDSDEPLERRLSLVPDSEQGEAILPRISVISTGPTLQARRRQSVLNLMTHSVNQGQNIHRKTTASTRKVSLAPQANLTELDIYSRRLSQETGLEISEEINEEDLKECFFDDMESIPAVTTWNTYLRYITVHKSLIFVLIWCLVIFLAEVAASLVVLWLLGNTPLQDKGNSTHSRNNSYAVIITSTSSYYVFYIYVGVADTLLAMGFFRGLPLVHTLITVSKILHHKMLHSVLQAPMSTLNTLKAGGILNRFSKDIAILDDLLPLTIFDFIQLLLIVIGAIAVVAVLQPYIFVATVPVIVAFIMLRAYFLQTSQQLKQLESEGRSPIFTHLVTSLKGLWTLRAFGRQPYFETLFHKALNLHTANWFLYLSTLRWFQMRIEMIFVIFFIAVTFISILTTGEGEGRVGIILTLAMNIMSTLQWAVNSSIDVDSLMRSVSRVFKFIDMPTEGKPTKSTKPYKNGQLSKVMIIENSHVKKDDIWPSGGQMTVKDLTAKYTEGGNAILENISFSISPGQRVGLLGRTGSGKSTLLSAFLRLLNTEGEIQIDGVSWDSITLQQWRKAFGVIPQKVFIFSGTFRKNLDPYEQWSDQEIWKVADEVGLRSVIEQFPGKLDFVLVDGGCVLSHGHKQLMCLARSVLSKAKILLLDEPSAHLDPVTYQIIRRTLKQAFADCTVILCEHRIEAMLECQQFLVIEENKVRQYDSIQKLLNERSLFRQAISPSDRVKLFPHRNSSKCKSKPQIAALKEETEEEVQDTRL

| Emax [1] [%] | EC50 [2] [nM] | EC50 [3] [nM] | Emax [4] [%] | Compound | EC50 [nM] |
| --- | --- | --- | --- | --- | --- |
| 226 | 2690 |  |  | Cc1cc(NS(=O)(=O)c2cccc(N)n2)nc(-c2c(C)cccc2C)c1 [Example 63, 6-amino-N-(6-(2,6-dimethylphenyl)-4-methylpyridin-2-yl)pyridine-2-sulfonamide] |  |
|  |  | 498 |  | C[C@@]1(C(=O)O)CCCN(c2cccc(S(=O)(=O)Nc3ccc(C(F)(F)F)c(-c4ccccc4C4CCC4)n3)n2)C1 [Example 383, (R)-1-(6-(N-(6-(2-cyclobutylphenyl)-5-(trifluoromethyl)pyridin-2-yl)sulfamoyl)pyridin-2-yl)-3-methylpiperidine-3-carboxylic Acid] |  |
|  |  | 1610 | 468 | C[C@@]1(C(=O)O)CCCN(c2cccc(S(=O)(=O)Nc3ccc(C4CC4)c(-c4ccccc4C4CC4)n3)n2)C1 [Example 407, (R)-1-(6-(N-(5-cyclopropyl-6-(2-cyclopropylphenyl)pyridin-2-yl)sulfamoyl)pyridin-2-yl)-3-methylpiperidine-3-carboxylic Acid] |  |
|  |  | 761 | 889 | CC1(C(=O)O)CCCN(c2cccc(S(=O)(=O)Nc3ccc(Cl)c(-c4ccccc4C(C)(C)C)n3)n2)C1 (stereo not shown) [Example 390, 1-(6-(N-(6-(2-(tert-butyl)phenyl)-5-chloropyridin-2-yl)sulfamoyl)pyridin-2-yl)-3-methylpiperidine-3-carboxylic Acid] |  |
| 270 | 1780 |  |  | Cc1ccc(F)c(-c2nc(NS(=O)(=O)c3cccc(N)n3)ccc2Cl)c1Cl [Example 58, 6-amino-N-(5-chloro-6-(2-chloro-6-fluoro-3-methylphenyl)pyridin-2-yl)pyridine-2-sulfonamide] |  |
| 332 | 1980 |  |  | Cc1ccc(C(F)(F)F)cc1-c1nc(NS(=O)(=O)c2cccc(N)n2)ccc1Cl [Example 51, 6-amino-N-(5-chloro-6-(2-methyl-5-(trifluoromethyl)phenyl)pyridin-2-yl)pyridine-2-sulfonamide] |  |
| 196 | 4400 |  |  | O=S(=O)(Nc1ccc(C(F)(F)F)c(-c2cccc(F)c2Cl)n1)c1cccc(N2CCNCC2)n1 [Example 155, N-(6-(2-chloro-3-fluorophenyl)-5-(trifluoromethyl)pyridin-2-yl)-6-(piperazin-1-yl)pyridine-2-sulfonamide hydrochloride] |  |
| 95.9 | 3700 |  |  | COc1cc(NS(=O)(=O)c2cccc(N3CC(C)(O)C3)n2)nc(-c2c(C)cccc2C)c1 [Example 206, N-(6-(2,6-dimethylphenyl)-4-methoxypyridin-2-yl)-6-(3-hydroxy-3-methylazetidin-1-yl)pyridine-2-sulfonamide] |  |
| 193 | 3410 |  |  | COc1ccc(NS(=O)(=O)c2cccc(N)n2)nc1-c1c(C)cccc1C [Example 72, 6-amino-N-(6-(2,6-dimethylphenyl)-5-methoxypyridin-2-yl)pyridine-2-sulfonamide hydrochloride] |  |
| 854 | 1350 |  |  | Cc1ccccc1-c1nc(NS(=O)(=O)c2cccc(N3CCN4C[C@@H](F)C[C@H]4C3)n2)ccc1C(F)(F)F [Example 137, 6-((7S,8aS)-7-fluorohexahydropyrrolo[1,2-a]pyrazin-2(1H)-yl)-N-(6-(o-tolyl)-5-(trifluoromethyl)pyridin-2-yl)pyridine-2-sulfonamide] |  |
|  |  | 1770 | 899 | COc1ccc(Cl)cc1-c1nc(NS(=O)(=O)c2cccc(N3CCC[C@@](C)(C(=O)O)C3)n2)ccc1C(F)(F)F [Example 455, (R)-1-(6-(N-(6-(5-chloro-2-methoxyphenyl)-5-(trifluoromethyl)pyridin-2-yl)sulfamoyl)pyridin-2-yl)-3-methylpiperidine-3-carboxylic Acid] |  |
| 192 | 3810 |  |  | CO[C@H]1CNCC[C@H]1Nc1cccc(S(=O)(=O)Nc2ccc(C(F)(F)F)c(-c3ccccc3C)n2)n1 (racemic) [Example 115, 6-(((3S,4R)-3-methoxypiperidin-4-yl)amino)-N-(6-(o-tolyl)-5-(trifluoromethyl)pyridin-2-yl)pyridine-2-sulfonamide Hydrochloride] |  |
| 66.2 | 3630 |  |  | Cc1ccccc1-c1nc(NS(=O)(=O)c2cccc(N[C@@H]3CCNC[C@H]3O)n2)ccc1C(F)(F)F [Example 114, 6-(((3R,4R)-3-hydroxypiperidin-4-yl)amino)-N-(6-(o-tolyl)-5-(trifluoromethyl)pyridin-2-yl)pyridine-2-sulfonamide Hydrochloride] |  |
| 325 | 1840 |  |  | Cc1cccc(C(F)(F)F)c1-c1nc(NS(=O)(=O)c2cccc(N)n2)ccc1Cl [Example 53, 6-amino-N-(5-chloro-6-(2-methyl-6-(trifluoromethyl)phenyl)pyridin-2-yl)pyridine-2-sulfonamide] |  |
| 152 | 2600 |  |  | CC1(C(=O)O)CCN(c2cccc(S(=O)(=O)Nc3ccc(Cl)c(-c4ccc(F)cc4Cl)n3)n2)CC1 [Example 243, 1-(6-(N-(5-chloro-6-(2-chloro-4-fluorophenyl)pyridin-2-yl)sulfamoyl)pyridin-2-yl)-4-methylpiperidine-4-carboxylic Acid] |  |
|  |  | 2510 | 284 | CC1(C(=O)O)CCN(c2cccc(S(=O)(=O)Nc3ccc(C(F)(F)F)c(-c4ccccc4OCC(F)(F)F)n3)n2)CC1 [Example 381, 4-methyl-1-(6-(N-(6-(2-(2,2,2-trifluoroethoxy)phenyl)-5-(trifluoromethyl)pyridin-2-yl)sulfamoyl)pyridin-2-yl)piperidine-4-carboxylic Acid] |  |
|  |  | 1680 | 713 | Cc1ccccc1-c1nc(NS(=O)(=O)c2cccc(N3CCC[C@](C)(C(=O)O)C3)n2)ccc1C(F)(F)F [Example 428, (3S)-3-methyl-1-(6-{[6-(2-methylphenyl)-5-(trifluoromethyl)pyridin-2-yl]sulfamoyl}pyridin-2-yl)piperidine-3-carboxylic Acid] |  |
|  |  | 1040 | 749 | CC1(C(=O)O)CCCN(c2cccc(S(=O)(=O)Nc3ccc(Cl)c(-c4ccccc4C4CCC4)n3)n2)C1 (stereo not shown) [Example 389, 1-(6-(N-(5-chloro-6-(2-cyclobutylphenyl)pyridin-2-yl)sulfamoyl)pyridin-2-yl)-3-methylpiperidine-3-carboxylic Acid] |  |
| 105 | 4000 |  |  | Cc1cccc(C)c1-c1nc(NS(=O)(=O)c2cccc(N3CCC(N)(C(=O)O)CC3)n2)ccc1Cl [Example 269, 4-amino-1-(6-{[5-chloro-6-(2,6-dimethylphenyl)pyridin-2-yl]sulfamoyl}pyridin-2-yl)piperidine-4-carboxylic Acid Hydrochloride] |  |
|  |  | 1980 | 53.4 | O=C(O)[C@]12CC[C@H](O1)[C@H](Nc1cccc(S(=O)(=O)Nc3ccc(C(F)(F)F)c(-c4ccccc4C4CC4)n3)n1)C2 (racemic) [Example 438, rac-(1RS,3RS,4SR)-3-((6-(N-(6-(2-cyclopropylphenyl)-5-(trifluoromethyl)pyridin-2-yl)sulfamoyl)pyridin-2-yl)amino)-7-oxabicyclo[2.2.1]heptane-1-carboxylic Acid] |  |
| 418 | 1320 |  |  | Cc1cccc(F)c1-c1nc(NS(=O)(=O)c2cccc(N)n2)ccc1Cl [Example 31, 6-amino-N-(5-chloro-6-(2-fluoro-6-methylphenyl)pyridin-2-yl)pyridine-2-sulfonamide] |  |
|  |  | 2090 | 728 | CC1(C(=O)O)CCCN(c2cccc(S(=O)(=O)Nc3ccc(C(F)(F)F)c(-c4ccccc4Cl)n3)n2)C1 (stereo not shown) [Example 399, 1-(6-(N-(6-(2-chlorophenyl)-5-(trifluoromethyl)pyridin-2-yl)sulfamoyl)pyridin-2-yl)-3-methylpiperidine-3-carboxylic Acid] |  |
|  |  | 1730 | 763 | CC1(C(=O)O)CCCN(c2cccc(S(=O)(=O)Nc3ccc(Cl)c(-c4ccccc4C4CC4)n3)n2)C1 (stereo not shown) [Example 431, 1-(6-(N-(5-chloro-6-(2-cyclopropylphenyl)pyridin-2-yl)sulfamoyl)pyridin-2-yl)-3-methylpiperidine-3-carboxylic Acid] |  |
|  |  | 1750 |  | Cc1ccccc1-c1nc(NS(=O)(=O)c2cccc(N3CCC[C@@H]4[C@@H](C(=O)O)C[C@@H]43)n2)ccc1C(F)(F)F (racemic) [Example 443, rac-(1SR,6RS,7SR)-2-(6-(N-(6-(o-tolyl)-5-(trifluoromethyl)pyridin-2-yl)sulfamoyl)pyridin-2-yl)-2-azabicyclo[4.2.0]octane-7-carboxylic Acid] |  |

| Compound | Emax [1] [%] | EC50 [2] [nM] | EC50 [3] [nM] | Emax [4] [%] | EC50 [nM] |
| --- | --- | --- | --- | --- | --- |
| CC(C)COc1ccccc1-c1nc(NS(=O)(=O)c2cccc(N3CCC(C)(C(=O)O)CC3)n2)ccc1Cl [Example 397, 1-(6-(N-(5-chloro-6-(2-isobutoxyphenyl)pyridin-2-yl)sulfamoyl)pyridin-2-yl)-4-methylpiperidine-4-carboxylic Acid] |  |  | 1280 | 303 |  |
| Cc1ccccc1-c1nc(NS(=O)(=O)c2cccc(N3C4CCC3CC(C(=O)O)C4)n2)ccc1C(F)(F)F (stereo not shown) [Example 346, 8-(6-{[6-(2-methylphenyl)-5-(trifluoromethyl)pyridin-2-yl]sulfamoyl}pyridin-2-yl)-8-azabicyclo[3.2.1]octane-3-carboxylic Acid] | 297 |  |  |  | 1750 |
| CC(C)COc1ccccc1-c1nc(NS(=O)(=O)c2cccc(N3CCC(C)(C(=O)O)CC3)n2)ccc1C(F)(F)F [Example 382, 1-(6-(N-(6-(2-isobutoxyphenyl)-5-(trifluoromethyl)pyridin-2-yl)sulfamoyl)pyridin-2-yl)-4-methylpiperidine-4-carboxylic Acid] |  |  | 711 | 504 |  |
